{
  "source": "patent US11598778B2",
  "about": "“Method for diagnosis, prognosis and determination of treatment for cutaneous t-cell lymphoma” (UNIVERSITY OF PITTSBURGH—OF THE COMMONWEALTH SYSTEM OF …, priority 2013, dated 2023)",
  "format_in_all_cases": "cell-based, human",
  "key": {"TOX": {"tested_on": "TOX", "assay": "qRT-PCR of TOX gene expression in cultured PBMCs after drug treatment", "conditions": "isolated PBMCs, 48 hours of incubation with treatment; 4 μM romidepsin or 20 uM pralatrexate; romidepsin p<0.05; FIG. 5A", "experimental": "(§1) Isolated PBMCs were cultured overnight and the next day divided into two treatment groups: 4 μM romidepsin and 20 uM pralatrexate. Each treatment was added 24 hours following culture initiation and was replaced along with fresh media 24 hours after initial treatment. After 48 hours of incubation with treatment, RNA was isolated from treated cells using RNAprotect and RNeasy (Qiagen, Valencia, Calif.) per manufacturer's instructions. For cDNA synthesis, total RNA (100 ng) was used for Reverse Transcription (RT) with Superscript II reverse transcriptase (Life Technologies, Gaithersburg, Md.) using oligo dT primers according to the recommendations of the manufacturer. 2 ul of the resulting cDNA was used for each PCR reaction. Quantitative reverse transcription PCR was performed using TaqMan PCR master mix (Applied Biosystems, Foster City, Calif.) together with TaqMan probes and primers (Applied Biosystems) using standard conditions. Expression of TOX, PLS3 and […] genes were measured in this way."}, "PLS3": {"tested_on": "PLS3", "assay": "qRT-PCR of PLS3 gene expression in cultured PBMCs after drug treatment", "conditions": "isolated PBMCs, 48 hours of incubation with treatment; 4 μM romidepsin or 20 uM pralatrexate; romidepsin p<0.05; FIG. 5B", "experimental": "as §1"}, "RUNX3": {"tested_on": "RUNX3", "assay": "qRT-PCR of RUNX3 gene expression in cultured PBMCs after drug treatment", "conditions": "isolated PBMCs, 48 hours of incubation with treatment; 4 μM romidepsin or 20 uM pralatrexate; romidepsin p<0.05; FIG. 5C", "experimental": "as §1"}},
  "data": [
    {"compound": "C#CCC(Cc1cnc2nc(N)nc(N)c2n1)c1ccc(C(=O)N[C@@H](CCC(=O)O)C(=O)O)cc1", "note": "(stereo partly drawn) [pralatrexate]", "values": [
      {"measurement": "gene expression of TOX", "setting": "TOX", "value": "did not result in altered gene expression"},
      {"measurement": "gene expression of PLS3", "setting": "PLS3", "value": "did not result in altered gene expression"},
      {"measurement": "expression of RUNX3", "setting": "RUNX3", "value": "did not result in altered gene expression"}
    ]}
  ]
}
